Where a SMILES comes first, the peptide text is derived from it. Bridges are numbered along the chain shown (N, C = ends). [ ]: non-standard residue; d: D form. The star is where a group is joined. hPhe(3-Cl-4-CF3) = N[C@@H](CCc1ccc(C(F)(F)F)c(Cl)c1)C(=O)O; NPrPhe(4-CF3) = CCCN[C@@H](Cc1ccc(C(F)(F)F)cc1)C(=O)O; NEtPhe(4-CF3) = CCN[C@@H](Cc1ccc(C(F)(F)F)cc1)C(=O)O; Piperazinyl(4-(3-oxetanyl)) = C1OCC1N1CCN(*)CC1; NMeGly(cPent) = CN[C@H](C(=O)O)C1CCCC1; NMeD = CN[C@@H](CC(=O)O)C(=O)O; NMeL = CN[C@@H](CC(C)C)C(=O)O; Morpholide = C1CN(*)CCO1; NMeA = CN[C@@H](C)C(=O)O; Ac5c = NC1(C(=O)O)CCCC1; Aze = O=C(O)[C@@H]1CCN1; Ac3c = NC1(C(=O)O)CC1; Sar = CNCC(=O)O
Tests used:
[1] = target: GDP-bound HRAS wild-type protein (Homo sapiens, UniProt P01112); assay: Binding to HRAS by surface plasmon resonance (SPR), Single Cycle Kinetics
Chain of GDP-bound HRAS wild-type protein (P01112 whole entry): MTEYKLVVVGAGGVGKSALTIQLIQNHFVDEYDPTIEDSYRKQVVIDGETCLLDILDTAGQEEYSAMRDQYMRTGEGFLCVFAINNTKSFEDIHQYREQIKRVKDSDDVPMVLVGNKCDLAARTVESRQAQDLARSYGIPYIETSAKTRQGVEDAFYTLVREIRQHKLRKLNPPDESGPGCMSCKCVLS

[2] = target: GDP-bound NRAS wild-type protein (Homo sapiens, UniProt P01111); assay: Binding to NRAS by surface plasmon resonance (SPR), Single Cycle Kinetics
Chain of GDP-bound NRAS wild-type protein (P01111 whole entry): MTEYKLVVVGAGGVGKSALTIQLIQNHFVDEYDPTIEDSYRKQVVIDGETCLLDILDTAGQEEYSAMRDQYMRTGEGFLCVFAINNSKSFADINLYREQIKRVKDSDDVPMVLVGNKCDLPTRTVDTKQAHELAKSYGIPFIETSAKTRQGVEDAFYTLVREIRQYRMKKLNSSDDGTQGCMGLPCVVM

[3] = KD ratio, GDP-bound HRAS wild-type vs GDP-bound KRAS wild-type, SPR
[4] = KD ratio, GDP-bound NRAS wild-type vs GDP-bound KRAS wild-type, SPR

CCCN1C(=O)[C@@H]2CCN2C(=O)[C@H](C)N(C)C(=O)[C@H]([C@@H](C)CC)NC(=O)[C@H](CC(C)C)N(C)C(=O)C[C@@H](C(=O)N2CCN(C3COC3)CC2)N(C)C(=O)[C@H](C2CCCC2)N(C)C(=O)C2(CCCC2)NC(=O)[C@@H]2CCCN2C(=O)[C@H](CCc2ccc(C(F)(F)F)c(Cl)c2)NC(=O)CN(C)C(=O)[C@@H]1Cc1ccc(C(F)(F)F)cc1 [PP0184] ([NMeL]I[NMeA][Aze][NPrPhe(4-CF3)][Sar][hPhe(3-Cl-4-CF3)]P[Ac5c][NMeGly(cPent)][NMeD]-{Piperazinyl(4-(3-oxetanyl))}; lactam N-11)
HRAS/KRAS (ratio of KD for GDP-bound HRAS wild-type to KD for KRAS) ([1]; SPR): B (a compound having 3 or more and less than 10 is denoted as B)
NRAS/KRAS (ratio of KD for GDP-bound NRAS wild-type to KD for KRAS) ([2]; SPR): C (A compound having a KD ratio of 0.1 or more and less than 3 is denoted as C)

CCCN(C)C(=O)[C@@H]1CC(=O)N(C)[C@@H](C(C)C)C(=O)N[C@@H]([C@@H](C)CC)C(=O)N(C)CC(=O)N(C)[C@H]2C/C=C\CCN(C2=O)[C@@H](Cc2ccc(C(F)(F)F)cc2)C(=O)N(C)CC(=O)N[C@@H](CCc2cc(F)c(C(F)(F)F)c(F)c2)C(=O)N2C[C@H](OCC)C[C@H]2C(=O)NC2(CCC2)C(=O)N(C)[C@@H](C2CCCC2)C(=O)N1C [PP1992]
HRAS/KRAS (ratio of KD value for HRAS to KD value for KRAS) [1, 3]: B (a compound having 3 or more and less than 10 is denoted as B)
NRAS/KRAS (ratio of KD value for NRAS to KD value for KRAS) [2, 4]: AA (a compound having 20 or more is denoted as AA)

CCCN1C(=O)CN(C)C(=O)[C@@H]2CCN2C(=O)[C@H]([C@@H](C)CC)NC(=O)[C@H](CC(C)C)N(C)C(=O)C[C@@H](C(=O)N2CCOCC2)NC(=O)[C@H](C2CCCC2)N(C)C(=O)C2(CCCC2)NC(=O)[C@@H]2CCCN2C(=O)[C@H](CCc2ccc(C(F)(F)F)c(Cl)c2)NC(=O)CN(C)C(=O)[C@@H]1Cc1ccc(C(F)(F)F)cc1 [PP0337] ([NMeL]I[Aze][Sar][NPrPhe(4-CF3)][Sar][hPhe(3-Cl-4-CF3)]P[Ac5c][NMeGly(cPent)]D-Morpholide; lactam N-11)
HRAS/KRAS (ratio of KD for GDP-bound HRAS wild-type to KD for KRAS) ([1]; SPR): B (a compound having 3 or more and less than 10 is denoted as B)
NRAS/KRAS (ratio of KD for GDP-bound NRAS wild-type to KD for KRAS) ([2]; SPR): B (a compound having 3 or more and less than 10 is denoted as B)

CC[C@H](C)[C@@H]1NC(=O)[C@H](CC(C)C)N(C)C(=O)C[C@@H](C)N(C)C(=O)[C@H](C2CCCC2)N(C)C(=O)C2(CCCC2)NC(=O)[C@@H]2CCCN2C(=O)[C@H](CCc2cc(F)c(C(F)(F)F)c(F)c2)NC(=O)CN(C)C(=O)[C@H](Cc2ccc(C(F)(F)F)cc2)N2CC/C=C\C[C@@H](C2=O)N(C)C(=O)CN(C)C1=O [PP1102]
HRAS/KRAS (ratio of KD value with respect to HRAS to KD value with respect to KRAS) [1, 3]: A (a compound having 10 or more and less than 20 is denoted as A)
NRAS/KRAS (ratio of KD value with respect to NRAS to KD value with respect to KRAS) [2, 4]: B (a compound having 3 or more and less than 10 is denoted as B)

CCC(CC)[C@H]1C(=O)N(C)[C@H](C(=O)N(C)C)CC(=O)N(C)[C@@H](COC)C(=O)N[C@@H]([C@@H](C)CC)C(=O)N(C)CC(=O)N(C)[C@H]2C/C=C\CCN(C2=O)[C@@H](Cc2ccc(C)cc2)C(=O)N(C)CC(=O)N[C@@H](CCc2cc(F)c(C(F)(F)F)c(F)c2)C(=O)N2CCCCC[C@H]2C(=O)NC2(CC(C)(C)C2)C(=O)N1C [PP2960]
HRAS/KRAS (ratio of KD value with respect to GDP-bound HRAS wild-type protein to KD value with respect to KRAS) ([1]; class symbols): A (a compound having 10 or more and less than 20 is denoted as A)
NRAS/KRAS (ratio of KD value with respect to GDP-bound NRAS wild-type protein to KD value with respect to KRAS) ([2]; class symbols): A (a compound having 10 or more and less than 20 is denoted as A)

CC[C@H](C)[C@@H]1NC(=O)[C@H](CC(C)C)N(C)C(=O)C[C@@H](C(=O)N2CCOCC2)N(C)C(=O)[C@H](C2CCCC2)N(C)C(=O)C2(CC2)NC(=O)[C@@H]2CCCN2C(=O)[C@H](CCc2ccc(C(F)(F)F)c(Cl)c2)NC(=O)CN(C)C(=O)[C@H](Cc2ccc(C(F)(F)F)cc2)N(CC)C(=O)CN(C)C(=O)CN(C)C1=O [PP0234] ([NMeL]I[Sar][Sar][NEtPhe(4-CF3)][Sar][hPhe(3-Cl-4-CF3)]P[Ac3c][NMeGly(cPent)][NMeD]-Morpholide; lactam N-11)
HRAS/KRAS (ratio of KD for GDP-bound HRAS wild-type to KD for KRAS) ([1]; SPR): C (A compound having a KD ratio of 0.1 or more and less than 3 is denoted as C)
NRAS/KRAS (ratio of KD for GDP-bound NRAS wild-type to KD for KRAS) ([2]; SPR): B (a compound having 3 or more and less than 10 is denoted as B)

CC[C@H](C)[C@@H]1NC(=O)[C@H](CC(C)C)N(C)C(=O)C[C@@H](C(=O)N2CCOCC2)N(C)C(=O)[C@H](C2CCCC2)N(C)C(=O)C2(CCCC2)NC(=O)[C@@H]2CCCN2C(=O)[C@H](CCc2ccc(C(F)(F)F)c(Cl)c2)NC(=O)CN(C)C(=O)[C@H](Cc2ccc(OC(F)(F)F)cc2)N2CCCCC[C@@H](C2=O)N(C)C(=O)CN(C)C1=O [PP0615]
HRAS/KRAS (ratio of KD value with respect to GDP-bound HRAS wild-type protein to KD value with respect to KRAS) ([1]; SPR): B (a compound having 3 or more and less than 10 is denoted as B)
NRAS/KRAS (ratio of KD value with respect to GDP-bound NRAS wild-type protein to KD value with respect to KRAS) ([2]; SPR): B (a compound having 3 or more and less than 10 is denoted as B)

Reference: patent US20250230193A1, “CYCLIC COMPOUND HAVING SELECTIVE KRAS INHIBITORY EFFECT ON HRAS AND NRAS” (CHUGAI SEIYAKU KABUSHIKI KAISHA, priority 2022, published 2025)
